Reference: patent publication US8653082B2, “6-phenyl-2-[((piperidin-4-ylmethyl)-piperazin-1YL) or piperazin 1-ylmethyl)-piperidin-1-yl)]-imidazo[2,1-B][1,3,4]thiadiazole derivatives and their use” (Urifer Ltd., priority 2009, dated 2014)

Columns and labels:
Format in all cases: cell-based
HCT116 = test: XTT cell viability, HCT116 colon cancer cells; details: Homo sapiens, HCT-116; HCT116 colon cancer cell line; XTT test; compound in 30 mM HEPES pH=7, 0.25 to 10 μM; read-out: EC50 values on colon and liver cancer cells, HCT116
Description: (§1) The effect of the compounds Z522-0249, Z522-0251, Erbitux and E-626-0342 on the growth profile of cancer cells which express Fer was tested. The cells that were tested were: the colon cancer cell lines HT29, HCT 116, RKO, SW620, and SW48 and the liver cancer cell line Hep3B. The effect of each of the three compounds (Z522-0249, Z522-0251 and E-626-0342) on FS11 cells, a non malingnant fibroblastic cell line, was also studied.
(§2) Cells were seeded in 96 well microplates and were left to grow untreated overnight. Z522-0249 and Z522-0251 were dissolved in 30 mM HEPES pH=7 and were then added to each well in a dose dependent manner from 0.25 to 10 μM. E626-0342 was dissolved in DMSO and was then added to each well in a dose dependent manner from 0.1 to 5 μM. The concentration of DMSO in each well was 0.4% v/v. Untreated cells and cells subjected to 30 mM HEPEs pH=7 or 0.4% DMSO alone, served as controls. The number of viable cells in each well was determined 48, 72, and 96 hours after compound addition, using the XTT test (Berridge, M. V. et al, 2005).

HT29 = test: XTT cell viability, HT29 colon cancer cells; details: Homo sapiens, HT-29; HT29 colon cancer cell line; XTT test; compound in 30 mM HEPES pH=7, 0.25 to 10 μM; read-out: EC50 values on colon and liver cancer cells, HT29
Description: as §1, §2

RKO = test: XTT cell viability, RKO colon cancer cells; details: Homo sapiens; RKO colon cancer cell line; XTT test; compound in 30 mM HEPES pH=7, 0.25 to 10 μM; read-out: EC50 values on colon and liver cancer cells, RKO
Description: as §1, §2

SW620 = test: XTT cell viability, SW620 colon cancer cells; details: Homo sapiens, SW-620; SW620 colon cancer cell line; XTT test; compound in 30 mM HEPES pH=7, 0.25 to 10 μM; read-out: EC50 values on colon and liver cancer cells, SW620
Description: as §1, §2

Hep3B = test: XTT cell viability, Hep3B liver cancer cells; details: Homo sapiens; Hep3B liver cancer cell line; XTT test; compound in 30 mM HEPES pH=7, 0.25 to 10 μM; read-out: EC50 values on colon and liver cancer cells, Hep3B
Description: as §1, §2

SW48 = test: XTT cell viability, SW48 colon cancer cells; details: Homo sapiens; SW48 colon cancer cell line; XTT test; compound in 30 mM HEPES pH=7, 0.25 to 10 μM; read-out: EC50 values on colon and liver cancer cells, SW48
Description: as §1, §2

FS (normal fibroblasts) = test: XTT cell viability, FS (normal fibroblasts); details: Fibroblast; FS normal (non malignant) fibroblasts; XTT test; compound in 30 mM HEPES pH=7, 0.25 to 10 μM
Description: as §1, §2

| EC50 (HCT116) [µM] | EC50 (HT29) [µM] | EC50 (RKO) [µM] | EC50 (SW620) [µM] | EC50 (Hep3B) [µM] | EC50 (SW48) [µM] | SMILES | EC50 (FS (normal fibroblasts)) [µM] |
| --- | --- | --- | --- | --- | --- | --- | --- |
| 3 to 4 | 2 to 3 | 2 to 3 | 0.5 to 1 | 1 to 2 | 0.5 to 1 | CC(C)c1ccc(-c2cn3nc(N4CCC(CN5CCN(C)CC5)CC4)sc3n2)cc1 [Z522-0251, 6-(4-isopropyl-phenyl)-2-{4-[(4-methyl-piperazin-1-yl)methyl]piperidin-1-yl}imidazo[2,1-b][1,3,4]thiadiazole] | – |
| 3 | 2 | 1 to 2 | 0.5 to 1 | 1 to 2 | 0.5 to 1 | CC(C)c1ccc(-c2cn3nc(N4CCN(CC5CCN(C)CC5)CC4)sc3n2)cc1 [Z522-0249, 6-(4-isopropylphenyl)-2-{4-[(1-methylpiperidin-4-yl)methyl]piperazin-1-yl}imidazo[2,1-b][1,3,4]thiadiazole] | 10 |
